Source: PubChem BioAssay (NCI)
Values joined by “and” are separate entries in the source; they are usually repeats but may differ in a detail not shown here. Identical values can stand only once.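 48-hour exposure; five concentrations; linearly interpolated endpoints. The concentration for 50% growth inhibition is given as GI50. TGI marks complete inhibition of growth.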

The compounds below were run on MDA-MB-468 breast (assay: NCI tumour cell line growth inhibition, 48 h).

Compound | GI50 | TGI
O=C1/C=C/[C@@H](O)[C@@H]2C[C@@H](O)C[C@H]2/C=C/CCC[C@H](CCc2ccc(C(F)(F)F)cc2)O1 | 0.0281 µM | 0.0829 µM
Cc1cc(C(=O)Nc2nc3cccc(Cl)c3n2[C@@H]2CCCCN(C(=O)/C=C/CN(C)C)C2)ccn1 | 0.102 µM | 1.27 µM
COc1cccc(Cn2c(-c3nonc3N)nc3ccccc32)c1 | 0.312 µM | 
CCNCCC1(CC)C(=O)NC(=O)NC1=O | > 100 µM | > 100 µM
COc1ccc(CCN2CCCN3C2=Nc2ccccc2S3(=O)=O)cc1 | 0.312 µM | > 100 µM
O=C1/C(=C\c2ccc(F)cc2)CN(C(=O)c2ccc([N+](=O)[O-])cc2)C/C1=C\c1ccc(F)cc1 | 1.38 µM | 3.68 µM
Cc1ncc(C(=O)Nc2ccc(CN3CCN(C)CC3)c(C(F)(F)F)c2)cc1C#Cc1cnc(N)c2cnccc12 | 0.169 µM | 1.69 µM
O=C1Oc2ccccc2C(=O)/C1=C/N1C(=O)/C(=C/c2ccc3c(c2)OCO3)SC1=S | 12.1 µM | 42 µM
CCCCCCCCCCCCNC(=O)[C@H]1CSC(c2cc3ccccc3s2)N1 (stereo partly specified) | 1.09 µM | 4.11 µM
O=C(c1ccc(OCCN2CCCCC2)cc1)c1c(-c2ccc(O)cc2)sc2cc(O)ccc12 | 3.04 µM and 3.13 µM | 15.8 µM and 12.2 µM
CCC(CC)n1c(=O)c(SC2=NC3C(NN2)N(CC)C(=O)N3CC)c(C(=O)O)c2ccccc21 (stereo unspecified) | 0.92 µM | 27.8 µM
COc1cc2c(F)nccc2cc1C(=O)N[C@@H](c1ccc(F)c(Cl)c1)[C@@H]1C[C@@H](O)CN1 | 0.0527 µM | 2.33 µM
O=C1OC2C(O)COC2(O)C1(O)C(C[N+](=O)[O-])c1ccc(Cl)cc1 (stereo unspecified) | 16.9 µM | 44 µM
CN[C@@H](C)C(=O)N[C@H]1CN(C(=O)CC(C)C)CC[C@H]2CC[C@@H](C(=O)NC(c3ccccc3)c3ccccc3)N2C1=O | 39.2 µM | > 100 µM
COc1ccc(-c2nsc3c2NC(=O)CC3c2ccc(F)cc2)cc1 (stereo unspecified) | 2.18 µM | > 30 µM
Cc1ccc(S(=O)(=O)Oc2ccc([N+](=O)[O-])cc2[N+](=O)[O-])cc1 | 13.2 µM | 28.4 µM
O=C(N/N=C/c1ccccc1O)C(O)(c1ccccc1)c1ccccc1 | 4.62 µM | > 100 µM
NC(=O)C1c2ccccc2C=Cc2ccccc21 | 78.6 µM | > 100 µM
CCN1C(=O)N(CC)C2C1NN=c1s/c(=C\c3ccccc3F)c(=O)n12 (stereo unspecified) | 0.027 µM | > 48.1 µM
CC(C)CCSC1=CC(=O)c2ccccc2C1=O | 0.43 µM | 2.19 µM
O=C1CC2(CCOCC2)Oc2ncccc21 | 3.23 µM | 15.3 µM

Compound | GI50 | TGI
COc1ccccc1/C=C/C(=O)c1c(O)cc2occc2c1OC | 10.3 µM | 45.5 µM
COc1ccccc1-c1cc(/C=C2\C(=O)Nc3ncc(Br)cc32)cc(Br)c1O | 7.4 µM | > 25 µM
COc1cc(-c2nc(NC(C)=O)sc2-c2ccnc(NCCNS(=O)(=O)c3ccccc3)n2)ccc1Cl | 2.56 µM | 9.61 µM
COC(=O)[C@H]1[C@@H](O)[C@@]2(O)c3c(OC)cc(O[C@@H]4O[C@@H]([C@H](O)CO)CO[C@H]4OC)cc3O[C@@]2(c2ccc(OC)cc2)[C@@H]1c1ccccc1 | 0.00293 µM | 0.0112 µM
C=C(C)[C@@H]1CC[C@]2(C(N)=O)CC[C@]3(C)[C@H](CC[C@@H]4[C@@]5(C)CC[C@H](O)C(C)(C)[C@@H]5CC[C@]43C)[C@@H]12 | 3.2 µM | 11.9 µM
Cc1ccc2c(c1)C(C)Cc1c(ncnc1-n1cnc3cc(C)ccc31)N2C (stereo unspecified) | 0.0414 µM | 19 µM
CNC(=O)c1c(NC(=O)c2ccc(C(F)(F)F)cc2)sc2c1CCC(=O)C2 | 0.924 µM | 3.8 µM
O=Nc1ccc(O)c2ccccc12 | 5.85 µM | 27.4 µM
O=C(CCCCCCCn1cc(-c2cccnc2)nn1)Nc1ccccc1-c1ccccc1 | 4.74 µM | > 51.6 µM
Cc1cccc(-c2nn3c(c2-c2ccnc4ccc(C(N)=O)cc24)CCC3)n1 | > 100 µM | > 100 µM
CN1CCC(CNc2ccc3ncc(-c4cccc(OC(F)(F)F)c4)n3n2)CC1 | 1.24 µM and 1.11 µM | 2.74 µM and 3.28 µM
Cn1cc(-c2csc(-c3cn(C)c4ccc(Br)cc34)n2)c2cnccc21 | 1.79 µM | 3.46 µM
CC(C)CC1C(=O)N2CCC[C@H]2C2(O)O[C@](NC(=O)C3C=C4c5cccc6[nH]c(Br)c(c56)C[C@H]4N(C)C3)(C(C)C)C(=O)N12 (stereo partly specified) | 3.09 µM | 39.3 µM
CCN(CC)CCCC(C)Nc1cc(-c2ccc(C(F)(F)F)cc2)c(C#N)c2nc3ccccc3n12 (stereo unspecified) | 1.75 µM | 3.35 µM
NC(=NCCCC1(c2ccccc2)CCCC1)Nc1ccc(Cl)cc1 | 1.65 µM | 3.25 µM
Nc1ccccc1SC(CC(=O)c1ccccc1)c1ccc([N+](=O)[O-])cc1 (stereo unspecified) | 14.4 µM | 31 µM
N#Cc1nc(-c2ccccc2)oc1S(=O)(=O)N1CCCCC1 | 10.2 µM | 28.5 µM
C[C@@H](N)C1CCC(C(=O)Nc2ccncc2)CC1 (stereo partly specified) | > 100 µM | > 100 µM
C/C1=C/C(=O)O[C@@H]2C[C@@H](CC[C@H](C)/C=C\C=C\CC1)O[C@@](O)([C@@H]1CSC(=O)N1CO)C2 | 0.0243 µM | 0.0765 µM
COC(=O)[C@H]1C(=O)[C@@]2(C)[C@H]([C@H](OC(=O)c3ccccc3)[C@]3(O)C[C@H](OC(=O)[C@H](O)[C@@H](NC(=O)c4ccc(F)cc4)c4ccccc4)C(C)=C1C3(C)C)[C@]1(OC(C)=O)CO[C@@H]1C[C@@H]2O | 0.00874 µM | 6.46 µM
